These results are taken from US20110250629A1, “ALCOHOL PRODUCTION PROCESS” (Lanza Tech New Zealand Limited, priority 2009, published 2011).

Molecules are shown by their SMILES.

In experiment [1] the test system is Clostridium autoethanogenum DSM23693. To be noted: 37° C., PETC medium. On the procedure: The ethanol tolerance of Clostridium autoethanogenum DSM23693 was tested in serum bottles (FIG. 5). Ethanol was added in various concentrations to an active growing culture at 37° C. in PETC medium (Tab. 1) with 30 psi steel mill gas as substrate (approx 48% CO, 32% N2, 2% H2, and 18% CO2). Ethanol concentrations were confirmed by HPLC analysis using an Agilent 1100 Series HPLC system equipped with a RID operated at 35° C. (Refractive Index Detector) and an Alltech IOA-2000 Organic acid column (150×6.5 mm, particle size 5 μm) kept at 60° C. Slightly acidified water was used (0.005 M H2SO4) as mobile phase with a flow rate of 0.7 ml/min. To remove proteins and other cell residues, 400 μl samples were mixed with 100 μl of a 2% (w/v) 5-Sulfosalicylic acid and centrifuged at 14,000×g for 3 min to separate precipitated residues. 10 μl of the supernatant were then injected into the HPLC for analyses.

For experiment [2], the system named is Clostridium autoethanogenum. To be noted: fermentation broth.
For experiment [3], the system named is Clostridium thermocellum. The note with it: cited from earlier work.

`CCO` [ethanol, Ethanol]: the “microbial biomass reached over a 24 hour period” value in experiment [1] (20 g/L ethanol added, 30 psi steel mill gas, start approx 0.2 g/L biomass, no-added-ethanol culture reached approx 0.85 g/L) is 0.45 g/L. Moreover, the “ethanol concentration at which growth was found to be inhibited” value in experiment [1] (serum bottles) is 10-20 g/l. In addition, in experiment [2], the “concentration over which growth rate is partially inhibited and productivity decreases” value is 20 to 40 g/L; the “concentration over which metabolism and growth rate are substantially slowed” value was 40 to 50 g/L. Moreover, the “ethanol concentration in which the micro-organism can still thrive” value in experiment [3] (after strain selection) is listed as “up to 8%”. For the same compound, the “ethanol concentration inhibitory to growth” value in experiment [3] (unselected strain) is “above 1%”.
